In publication PMC6331850, “Evaluation of the Cytotoxicity of Structurally Correlated p-Menthane Derivatives” (Molecules, 2015):
Converted amounts (≈) assume the structure as drawn.

Assays:
[1] = test system: OVCAR-8 (ovarian adenocarcinoma); assay: MTT cytotoxicity assay, OVCAR-8; type: cell-based; conditions: Homo sapiens, 25 μg/mL, 72 h incubation, mean of three independent experiments, read-out: Cell growth inhibition percentage, OVCAR-8 IG%
Description: (§1) The cytotoxicity of the 18 compounds was tested against OVCAR-8 (ovarian adenocarcinoma), HCT-116 (colon carcinoma), SF-295 (glioblastoma), and HL-60 (leukemia) human cancer cell lines, all obtained from the National Cancer Institute, Bethesda, MD, USA. Cells were grown in RPMI-1640 medium supplemented with 10% fetal bovine serum, 2 mM glutamine, 100 µg/mL streptomycin, and 100 U/mL penicillin, and incubated at 37 °C in a 5% CO2 atmosphere.
(§2) Tumor cell growth was determined by the ability of living cells to reduce the yellow dye 3-(4,5-dimethyl-2-thiazolyl)-2,5-diphenyl-2H-tetrazolium bromide (MTT; Sigma Chemical Co., St. Louis, MO, USA) to a purple formazan product, as described by Mossman. For all experiments, cells were seeded in 96-well plates (0.1 × 10^6 cells/mL in 100 μL medium). After 24 h, the 18 compounds (25 μg/mL), were dissolved in 0.7% dimethyl sulfoxide (DMSO), and were added to each well (three independent experiments, performed in triplicate). Then, the cells were incubated for 72 h at 37 °C in a 5% CO2 atmosphere. The experiment was performed as three independent experiments, using DMSO at 1%, and doxorubicin at […] as negative and positive controls, respectively. Doxorubicin, purity >98%; Sigma Chemical Co.).
(§3) At the end of incubation, the plates were centrifuged, and the medium was replaced by fresh medium (150 μL) containing 0.5 mg/mL MTT. Three hours later, the formazan product was dissolved in 150 μL DMSO, and absorbance was measured using a multiplate reader (DTX 880 Multimode Detector, Beckman Coulter Inc., Packard, ON, Canada). The treatment effects were expressed as the percentage of control absorbance of reduced dye at 595 nm. All absorbance values were converted into a cell growth inhibition percentage (GI%) by the following formula: [GI% = 100 − [(T/C) × 100%] (1) where C is the absorbance for the negative control, and T is the absorbance in the presence of the tested compound. […]

SF-295 (glioblastoma) = assay: MTT cytotoxicity assay, SF-295; type: cell-based; conditions: Homo sapiens, 25 μg/mL, 72 h incubation, mean of three independent experiments, read-out: Cell growth inhibition percentage, SF-295 IG%
Description: as §1, §2, §3

[2] = test system: HCT-116 (colon carcinoma); assay: MTT cytotoxicity assay, HCT-116; type: cell-based; conditions: Homo sapiens, 25 μg/mL, 72 h incubation, mean of three independent experiments, read-out: Cell growth inhibition percentage, HCT-116 IG%
Description: as §1, §2, §3

HL-60 cells [3] = assay: Cell viability, trypan blue dye exclusion test; type: cell-based, human; conditions: 0.32, 0.64, 1.28 µg/mL; 24 h incubation
Description: The cell viability was determined by the trypan blue dye exclusion test. HL-60 cells were seeded (0.3 × 10^6 cells/mL) in absence or presence of different concentrations of compound 16 (0.32, 0.64, and 1.28 µg/mL). After the incubation period of 24 h, 90 µL were removed from the cell suspension and added to 10 µL of trypan blue. Viable and non-viable cells were differentiated and counted in a Neubauer chamber.

HL-60 cells [4] = assay: Morphological analysis by fluorescence microscopy (acridine orange/ethidium bromide); type: cell-based, human; conditions: 24 h
Description: HL-60 cells were pelleted and re-suspended in 20 µL of PBS. Then, 1 µL of aqueous acridine orange/ethidium bromide solution (AO/EB, 100 µg/mL) was added, and the cells were observed under a fluorescence microscope. Three hundred cells were counted per sample and classified as viable, apoptotic or necrotic.

HL-60 cells [5] = assay: Morphological analysis with hematoxylin-eosin staining; type: cell-based, human; conditions: 0.32, 0.64, 1.28 µg/mL; 24 h incubation
Description: For morphological cell analysis, we used hematoxylin-eosin and examined using light microscopy. HL-60 cells were seeded (0.3 × 10^6 cells/mL) in the absence or presence of different concentrations of compound 16 (0.32, 0.64 and 1.28 µg/mL). After an incubation period of 24 h, 50 µL of cell suspension were transferred to cytospin slides, fixed with metanol for 60 s, and stained with hematoxylin-eosin [43].

mouse erythrocytes = assay: Hemolytic assay; type: cell-based; conditions: up to highest tested concentration 500 μg/mL; data not shown
Description: The test was performed in 96-well plates using a 2% mouse erythrocyte suspension in 0.85% NaCl containing 10 mm CaCl2, following the method as described by Jimenez and collaborators. Various concentrations of compound 16 (0–500 µg/mL) were added to the suspension of red blood cells obtained from mice according to methodology adapted from Kang and collaborators, Pita and collaborators, and Bezerra and collaborators. The tubes with the compound 16 erythrocyte mixtures were incubated on a mixer for 60 min and then centrifuged at 3000 rpm for 5 min. […] After incubation at room temperature for 30 min and centrifugation, the supernatant was removed and the liberated hemoglobin was measured spectrophotometrically as the absorbance at 540 nm.

HL-60 (leukemia) = assay: MTT cytotoxicity assay, HL-60; type: cell-based; conditions: Homo sapiens, 72 h incubation, read-out: IC50 (95% confidence interval), HL-60
Description: as §1
Tumor cell growth was determined by the ability of living cells to reduce the yellow dye 3-(4,5-dimethyl-2-thiazolyl)-2,5-diphenyl-2H-tetrazolium bromide (MTT; Sigma Chemical Co., St. Louis, MO, USA) to a purple formazan product, as described by Mossman. […]
as §3

[6] = test system: OVCAR-8, HCT-116, and SF-295 human tumor cell lines; assay: MTT cytotoxicity assay, range over the three tumor cell lines; type: cell-based; conditions: for inhibition at 25 µg/mL: read-out: GI, range over the three cell lines
Description: as §1, §2
At the end of incubation, the plates were centrifuged, and the medium was replaced by fresh medium (150 μL) containing 0.5 mg/mL MTT. Three hours later, the formazan product was dissolved in 150 μL DMSO, and absorbance was measured using a multiplate reader (DTX 880 Multimode Detector, Beckman Coulter Inc., Packard, ON, Canada). The treatment effects were expressed as the percentage of control absorbance of reduced dye at 595 nm. All absorbance values were converted into a cell growth inhibition percentage (GI%) by the following formula: [GI% = 100 − [(T/C) × 100%] (1) where C is the absorbance for the negative control, and T is the absorbance in the presence of the tested compound.
The compounds that caused greater degree of cell growth inhibition and which have not been described in the literature for cytotoxic activity against tumor cell lines were evaluated for their median inhibitory concentration able to induce 50% of maximal effect (IC50). […] In addition, the IC50 was determined against HL-60 only for the most cytotoxic compound 16.

[7] = Homo sapiens, 72 h, 25 µg/mL, MTT, 72 h, HCT-116, OVCAR-8, SF-295

SMILES	inhibition at 25 µg/mL [1]	inhibition at 25 µg/mL (SF-295 (glioblastoma))	inhibition at 25 µg/mL [2]	inhibition at 25 µg/mL [6, 7]	further results
C[C@@H]1CCC2(OC2(C)C)C(=O)C1 (stereo partly drawn) [Compound 10, (R)-pulegone oxide]	17.6%	16%	43.2%	–	–
CC(=O)OC(C)(C)[C@@H]1CC=C(C)C(=O)C1 [Compound 8, (−)-8-Acetoxycarvotanacetone]	1.62%	30.5%	10.4%	–	–
CC1([C@@H]2CC=C(C=O)CC2)CO1 (single isomer, unassigned; (-)) [Compound 16, (−)-Perillaldehyde 8,9-epoxide]	96.3%	99.9%	98.6%	96.3 to 99.9%	effect on number of viable / non-viable cells (HL-60 cells [3]): reduction in the number of viable cells; cell death process, three concentrations tested (HL-60 cells [4]; 0.32, 0.64, 1.28 µg/mL, Figures 3 and 4): cell death by apoptosis; cell morphology, acridine orange/ethidium bromide (HL-60 cells [4]; 0.32, 0.64, 1.28 µg/mL, concentration-dependent, p < 0.05): morphology consistent with apoptosis and necrosis; cell death process at the higher doses (HL-60 cells [4]; doses of 0.64 and 1.28): necrotic cell death; cell morphology, hematoxylin-eosin (HL-60 cells [5]): morphology consistent with apoptosis; hemolysis (lysis of mouse erythrocytes) (mouse erythrocytes): not hemolytic; IC50 (HL-60 (leukemia)): 0.64 µg/mL (≈ 3.85 µM); IC50 ([6]; Homo sapiens, MTT, 72 h, HCT-116, OVCAR-8, SF-295): 1.03 to 1.75 µg/mL (≈ 6.2 to 10.5 µM)
C=C(C)[C@@H]1CCC2(C)OC2C1 (single isomer, unassigned; (+)) [Compound 12, (+)-Limonene 1,2-epoxide]	93.1%	58.5%	73.1%	< 50%	fold more cytotoxic than 5 (GI ratio) ([6]; compared with (−)-carvone epoxide (5), 25 µg/mL): 2.5- to 11 fold
CC1=CC[C@H](C(C)(C)O)CC1=O [Compound 4, (+)-8-Hydroxycarvotanacetone]	3.12%	16.4%	4.76%	–	–
C=C(C)[C@@H]1CC[C@@H](C)CC1=O [Compound 11, (−)-trans-isopulegone]	5.98%	7.56%	19%	–	–
C=C(C)[C@@H]1C[C@H](O)[C@]2(C)O[C@@H]2C1 [Compound 6, (+)-Carveol epoxide]	4.58%	35.4%	12.4%	–	–
C=C(C)[C@@H]1CC=C(COC(=O)c2ccccc2)CC1 [Compound 18, (S)-perillyl benzoate]	2.86%	4.53%	5.02%	–	–
CC1=CC[C@@H](C(C)(C)O)CC1=O [Compound 3, (−)-8-Hydroxycarvotanacetone]	94%	61.6%	75.2%	61.6 to 94%	GI, range over the three cell lines ([6]; 25 µg/mL, MTT, 72 h, HCT-116, OVCAR-8, SF-295): 61.59% to 94.01%
C=C(C)[C@@H]1CC=C(C=O)CC1 [Compound 15, (−)-Perillaldehyde]	70.2%	59.3%	83%	59.3 to 83%	–
